According to PubChem BioAssay AID493110 (The Scripps Research Institute Molecular Screening Center, 2011):
Activity calls are given as the source filed them. No rule for the calls is given here.

What was measured:
LYPLA1 = LYPLA1 and LYPLA2 inhibitor potency, dose response, biochemical, gel-based ABPP (AID 493110); details: competitive probe labeling
LYPLA2 = experiment: as above; details: competitive probe labeling

Structure (SMILES) | IC50 (LYPLA1) | IC50 (LYPLA2)
O=C(N1CCOCC1)n1nnc2ccccc21 | 795 nM | inactive
CC(C)(C)C1CCN(C(=O)n2ncc(C(O)(c3ccccc3)c3ccccc3)n2)CC1 | 17 nM | 30 nM
CC(C)(C)C1CCN(C(=O)n2ncc(C3(O)CCCCC3)n2)CC1 | 35 nM | 57 nM
CCC1CCCCN1C(=O)n1ncc(C(O)(c2ccccc2)c2ccccc2)n1 (stereo not given) | > 10000 nM (inactive) | > 10000 nM (inactive)
CC(C)(O)c1cnn(C(=O)N2CCC(C(C)(C)C)CC2)n1 | 44 nM | 97 nM
